In patent US6262054A (priority 1996, dated 2001):
Entries after “also recorded” stand apart in the source; their conditions may differ. Read-outs that look alike come from different tables or passages of the source.

What was measured:
[1] = test system: a number of tumors; conditions: preclinical tests; cited from earlier work
[2] = test system: metastatic colorectal carcinoma; conditions: single agent; cited from earlier work
[3] = test system: non-small cell lung cancer; conditions: single agent; cited from earlier work
[4] = test system: breast cancer; conditions: cited from earlier work; for curative effect of the single agent: alone, metastatic breast cancer patients; for antitumor activity: single agent
[5] = test system: non-Hodgkin's lymphoma; conditions: single agent; cited from earlier work
[6] = test system: head and neck carcinoma; conditions: single agent; cited from earlier work
[7] = test system: smallcell lung cancer; conditions: single agent; cited from earlier work
[8] = test system: sensitive tumor cells; conditions: cited from earlier work
[9] = test system: P388 Murine Tumor; assay: in vivo; conditions: for Increased Life-Span / Long-term Survivors / Median Survival Time (± SEM): at maximum tolerated dose, q4d × 3 ip
Description: (§1) Combination treatment in mice. The P388 lymphoidal tumor was transplanted intraperitoneally (10^6 cells/mouse) into […] mice. The animals were randomized into control and treated groups after tumor implant. […] Therapy was repeated three times at four day intervals between each treatment.

[10] = in vivo; conditions: mouse, in vivo, ip
Description: as §1

[11] = cited from earlier work
[12] = test system: dihydrofolate reductase; conditions: cited from earlier work
[13] = test system: refractory ovarian cancer; conditions: in vivo; cited from earlier work
[14] = test system: microtubules; conditions: cited from earlier work

CCC(Cc1cnc2nc(N)nc(N)c2n1)c1ccc(C(=O)N[C@@H](CCC(=O)O)C(=O)O)cc1 (some centres unmarked) [EDX, 10-ethyl-10-deaza-aminopterin]
antitumor activity compared with methotrexate [1]: greater antitumor activity than methotrexate against a number of tumors
anti-tumor activity [2]: No anti-tumor activity was observed
response rates [3]: ~30%
curative effect of the single agent [4]: neither edatrexate nor paclitaxel alone is curative for most metastatic breast cancer patients
antitumor activity [4]: Antitumor activity of edatrexate has also been observed
antitumor activity [5]: Antitumor activity of edatrexate has also been observed
antitumor activity [6]: Antitumor activity of edatrexate has also been observed
anti-tumor activity [7]: No anti-tumor activity was observed
accumulation / retention in tumor cells compared with methotrexate [8]: accumulated in sensitive tumor cells to a greater extent than its predecessor methotrexate and was more selectively retained by the tumor cells
Therapeutic activity (in words) ([9]; P388 in mice, maximum tolerated dose): more effective than MTX
Increased Life-Span [9]: +338%
Long-term Survivors [9]: 1/5
Median Survival Time (± SEM) [9]: 35 ± 4 days
MTD [10]: 100 mg/kg
dosage limit due to side effects ([11]; given occasionally): up to 120 mg/m^2 /week
primary toxic effect ([11]; single agent): mucositis
dosage limit due to side effects ([11]; usual): 80 mg/m^2 body surface area/week
inhibition of dihydrofolate reductase ([12]; listed as Edatrexate): inhibits dihydrofolate reductase
inhibition of dihydrofolate reductase ([12]; listed as edatrexate): inhibitor of dihydrofolate reductase

CN(Cc1cnc2nc(N)nc(N)c2n1)c1ccc(C(=O)N[C@@H](CCC(=O)O)C(=O)O)cc1 [MTX, methotrexate]
Long-term Survivors [9]: 0/5
Median Survival Time (± SEM) [9]: 27 ± 3 days
MTD [10]: 55 mg/kg
inhibition of dihydrofolate reductase [12]: inhibitor of dihydrofolate reductase; also recorded: inhibits dihydrofolate reductase

CC(=O)O[C@H]1C(=O)[C@@]2(C)[C@H]([C@H](OC(=O)c3ccccc3)[C@]3(O)C[C@H](OC(=O)[C@H](O)[C@@H](NC(=O)c4ccccc4)c4ccccc4)C(C)=C1C3(C)C)[C@]1(OC(C)=O)CO[C@@H]1C[C@@H]2O [TXL, paclitaxel]
activity [13]: activity against refractory ovarian cancer
curative effect of the single agent [4]: neither edatrexate nor paclitaxel alone is curative for most metastatic breast cancer patients
antitumor activity [4]: anti-tumor properties in some breast cancer patients
effect on microtubule assembly and stability [14]: promotes the assembly of microtubules from tubulin dimers and stabilizes microtubules by preventing depolymerization
Increased Life-Span [9]: +100%
Long-term Survivors [9]: 0/5
Median Survival Time (± SEM) [9]: 16 ± 2 days
MTD [10]: 18 mg/kg
primary dose limiting toxic effect ([11]; single agent): myelosuppression
